{
  "source": "patent US20260166021A1",
  "about": "“POLYMORPHIC FORMS OF A SOLUBLE EPOXIDE HYDROLASE INHIBITOR AND FORMULATIONS THEREOF” (EicOsis, LLC, priority 2022, published 2026)",
  "assay": "Solubility screening of Formula (I) in crystallization solvents at RT and 50° C. (TABLE 3)",
  "format": "physicochemical",
  "settings": "for solubility: thermodynamic from solid",
  "description": "This example covers crystallization of Formula (I) in multiple solvent systems. Solvents were selected to span a range of polarities, functionalities, and classifications according to the International Conference on Harmonization (ICH) with preferences given to class II and class III solvents. […] After each addition of solvent, the vials were shaken and visually inspected for residual solids. If required, heating to 50° C. or heated to reflux (for low boiling point solvents) for approximately two minutes was performed to ensure complete dissolution. If residual solids remained, additional solvent aliquots were added. The solvent addition was discontinued when complete dissolution was achieved. […]",
  "note": "Read-outs that look alike come from different tables or passages of the source.",
  "data": [
    {"smiles": "CC[C@H](C)C(=O)N1CCC(NC(=O)Nc2ccc(OC(F)(F)F)c(F)c2)CC1", "note": "[Formula (I), (S)-1-(3-fluoro-4-(trifluoromethoxy)phenyl)-3-(1-(2-methylbutanoyl)piperidin-4-yl)urea]", "values": [
      {"measurement": "Soluble?", "setting": "2-MeTHF, RT, Vol 0.2 mL", "value": "Yes"},
      {"measurement": "solubility", "setting": "2-butanone (MEK), organic solvent or mixture, MEK, RT, read-out: Nominal Solubility", "value": 50.4, "unit": "mg/mL"},
      {"measurement": "solubility", "setting": "2-butanone (MEK), organic solvent or mixture, MEK, RT, read-out: Solubility Range", "value": "≥ 50.4", "unit": "mg/mL"},
      {"measurement": "solubility", "setting": "2-methyltetrahydrofuran (2-MeTHF), organic solvent or mixture, 2-MeTHF, RT, read-out: Nominal Solubility", "value": 25.2, "unit": "mg/mL"},
      {"measurement": "solubility", "setting": "2-methyltetrahydrofuran (2-MeTHF), organic solvent or mixture, 2-MeTHF, RT, read-out: Solubility Range", "value": "25.2 to 50.4", "unit": "mg/mL"},
      {"measurement": "Soluble?", "setting": "ACN, RT, Vol 0.1 mL", "value": "Yes"},
      {"measurement": "Soluble?", "setting": "Acetone, RT, Vol 0.1 mL", "value": "Yes"},
      {"measurement": "Soluble?", "setting": "DCM, RT, Vol 0.1 mL", "value": "Yes"},
      {"measurement": "solubility", "setting": "DMF, organic solvent or mixture, DMF, RT, read-out: Nominal Solubility", "value": 46.1, "unit": "mg/mL"},
      {"measurement": "solubility", "setting": "DMF, organic solvent or mixture, DMF, RT, read-out: Solubility Range", "value": "≥ 46.1", "unit": "mg/mL"},
      {"measurement": "Soluble?", "setting": "DMF, RT, Vol 0.1 mL", "value": "Yes"},
      {"measurement": "solubility", "setting": "DMSO, organic solvent or mixture, DMSO, RT, read-out: Nominal Solubility", "value": 47.8, "unit": "mg/mL"},
      {"measurement": "solubility", "setting": "DMSO, organic solvent or mixture, DMSO, RT, read-out: Solubility Range", "value": "≥ 47.8", "unit": "mg/mL"},
      {"measurement": "Soluble?", "setting": "DMSO, RT, Vol 0.1 mL", "value": "Yes"},
      {"measurement": "Soluble?", "setting": "Dioxane, RT, Vol 0.5 mL", "value": "Yes"},
      {"measurement": "Soluble?", "setting": "EtOAc, RT, Vol 0.1 mL", "value": "Yes"},
      {"measurement": "Soluble?", "setting": "EtOH, RT, Vol 0.1 mL", "value": "Yes"},
      {"measurement": "Soluble?", "setting": "IPA, RT, Vol 0.1 mL", "value": "Yes"},
      {"measurement": "Soluble?", "setting": "IPAC, RT, Vol 0.2 mL", "value": "Yes"},
      {"measurement": "Soluble?", "setting": "MEK, RT, Vol 0.1 mL", "value": "Yes"},
      {"measurement": "Soluble?", "setting": "MIBK, RT, Vol 0.1 mL", "value": "Yes"},
      {"measurement": "Soluble?", "setting": "MTBE, 50° C., Vol 1.0 mL", "value": "Yes"},
      {"measurement": "Soluble?", "setting": "MeOH, RT, Vol 0.1 mL", "value": "Yes"},
      {"measurement": "solubility", "setting": "NMP, organic solvent or mixture, NMP, RT, read-out: Nominal Solubility", "value": 55.2, "unit": "mg/mL"},
      {"measurement": "solubility", "setting": "NMP, organic solvent or mixture, NMP, RT, read-out: Solubility Range", "value": "≥ 55.2", "unit": "mg/mL"},
      {"measurement": "Soluble?", "setting": "NMP, RT, Vol 0.1 mL", "value": "Yes"},
      {"measurement": "Soluble?", "setting": "THF, RT, Vol 0.1 mL", "value": "Yes"},
      {"measurement": "Soluble?", "setting": "Toluene, 50° C., Vol 0.5 mL", "value": "Yes"},
      {"measurement": "Soluble?", "setting": "Water, 50° C., Vol 4.0 mL", "value": "No"},
      {"measurement": "solubility", "setting": "acetone, organic solvent or mixture, Acetone, RT, read-out: Nominal Solubility", "value": 43.7, "unit": "mg/mL"},
      {"measurement": "solubility", "setting": "acetone, organic solvent or mixture, Acetone, RT, read-out: Solubility Range", "value": "≥ 43.7", "unit": "mg/mL"},
      {"measurement": "solubility", "setting": "acetonitrile (ACN), organic solvent or mixture, ACN, RT, read-out: Nominal Solubility", "value": 48.3, "unit": "mg/mL"},
      {"measurement": "solubility", "setting": "acetonitrile (ACN), organic solvent or mixture, ACN, RT, read-out: Solubility Range", "value": "≥ 48.3", "unit": "mg/mL"},
      {"measurement": "Soluble?", "setting": "c-Hexane, 50° C., Vol 4.0 mL", "value": "No"},
      {"measurement": "solubility", "setting": "c-hexane, 50 °C, organic solvent or mixture, c-Hexane, 50° C., read-out: Solubility Range", "value": "< 1.17", "unit": "mg/mL"},
      {"measurement": "solubility", "setting": "cyclohexane (c-hexane), 50 °C, organic solvent or mixture, c-Hexane, 50° C., read-out: Nominal Solubility", "value": "< 1.17", "unit": "mg/mL"},
      {"measurement": "solubility", "setting": "dichloromethane (DCM), organic solvent or mixture, DCM, RT, read-out: Nominal Solubility", "value": 46.6, "unit": "mg/mL"},
      {"measurement": "solubility", "setting": "dichloromethane (DCM), organic solvent or mixture, DCM, RT, read-out: Solubility Range", "value": "≥ 46.6", "unit": "mg/mL"},
      {"measurement": "solubility", "setting": "dioxane, organic solvent or mixture, Dioxane, RT, read-out: Nominal Solubility", "value": 9.36, "unit": "mg/mL"},
      {"measurement": "solubility", "setting": "dioxane, organic solvent or mixture, Dioxane, RT, read-out: Solubility Range", "value": "9.36 to 23.4", "unit": "mg/mL"},
      {"measurement": "solubility", "setting": "ethanol, organic solvent or mixture, EtOH, RT, read-out: Nominal Solubility", "value": 41.2, "unit": "mg/mL"},
      {"measurement": "solubility", "setting": "ethanol, organic solvent or mixture, EtOH, RT, read-out: Solubility Range", "value": "≥ 41.2", "unit": "mg/mL"},
      {"measurement": "solubility", "setting": "ethyl acetate (EtOAc), organic solvent or mixture, EtOAc, RT, read-out: Nominal Solubility", "value": 54.3, "unit": "mg/mL"},
      {"measurement": "solubility", "setting": "ethyl acetate (EtOAc), organic solvent or mixture, EtOAc, RT, read-out: Solubility Range", "value": "≥ 54.3", "unit": "mg/mL"},
      {"measurement": "solubility", "setting": "isopropanol (IPA), organic solvent or mixture, IPA, RT, read-out: Nominal Solubility", "value": 56, "unit": "mg/mL"},
      {"measurement": "solubility", "setting": "isopropanol (IPA), organic solvent or mixture, IPA, RT, read-out: Solubility Range", "value": "≥ 56", "unit": "mg/mL"},
      {"measurement": "solubility", "setting": "isopropyl acetate (IPAc), organic solvent or mixture, IPAC, RT, read-out: Nominal Solubility", "value": 23.4, "unit": "mg/mL"},
      {"measurement": "solubility", "setting": "isopropyl acetate (IPAc), organic solvent or mixture, IPAC, RT, read-out: Solubility Range", "value": "23.4 to 46.7", "unit": "mg/mL"},
      {"measurement": "solubility", "setting": "methanol, organic solvent or mixture, MeOH, RT, read-out: Nominal Solubility", "value": 43.2, "unit": "mg/mL"},
      {"measurement": "solubility", "setting": "methanol, organic solvent or mixture, MeOH, RT, read-out: Solubility Range", "value": "≥ 43.2", "unit": "mg/mL"},
      {"measurement": "solubility", "setting": "methyl isobutyl ketone (MIBK), organic solvent or mixture, MIBK, RT, read-out: Nominal Solubility", "value": 48, "unit": "mg/mL"},
      {"measurement": "solubility", "setting": "methyl isobutyl ketone (MIBK), organic solvent or mixture, MIBK, RT, read-out: Solubility Range", "value": "≥ 48", "unit": "mg/mL"},
      {"measurement": "solubility", "setting": "methyl tert-butyl ether (MTBE), 50 °C, organic solvent or mixture, MTBE, 50° C., read-out: Nominal Solubility", "value": 5.68, "unit": "mg/mL"},
      {"measurement": "solubility", "setting": "methyl tert-butyl ether (MTBE), 50 °C, organic solvent or mixture, MTBE, 50° C., read-out: Solubility Range", "value": "5.68 to 11.4", "unit": "mg/mL"},
      {"measurement": "Soluble?", "setting": "n-BuOH, RT, Vol 0.1 mL", "value": "Yes"},
      {"measurement": "Soluble?", "setting": "n-Heptane, 50° C., Vol 4.0 mL", "value": "No"},
      {"measurement": "Soluble?", "setting": "n-Propanol, RT, Vol 0.1 mL", "value": "Yes"},
      {"measurement": "solubility", "setting": "n-butanol (n-BuOH), organic solvent or mixture, n-BuOH, RT, read-out: Nominal Solubility", "value": 42.6, "unit": "mg/mL"},
      {"measurement": "solubility", "setting": "n-butanol (n-BuOH), organic solvent or mixture, n-BuOH, RT, read-out: Solubility Range", "value": "≥ 42.6", "unit": "mg/mL"},
      {"measurement": "solubility", "setting": "n-heptane, 50 °C, organic solvent or mixture, n-Heptane, 50° C., read-out: Nominal Solubility", "value": "< 1.32", "unit": "mg/mL"},
      {"measurement": "solubility", "setting": "n-heptane, 50 °C, organic solvent or mixture, n-Heptane, 50° C., read-out: Solubility Range", "value": "< 1.32", "unit": "mg/mL"},
      {"measurement": "solubility", "setting": "n-propanol, organic solvent or mixture, n-Propanol, RT, read-out: Nominal Solubility", "value": 52.2, "unit": "mg/mL"},
      {"measurement": "solubility", "setting": "n-propanol, organic solvent or mixture, n-Propanol, RT, read-out: Solubility Range", "value": "≥ 52.2", "unit": "mg/mL"},
      {"measurement": "solubility", "setting": "tetrahydrofuran (THF), organic solvent or mixture, THF, RT, read-out: Nominal Solubility", "value": 48, "unit": "mg/mL"},
      {"measurement": "solubility", "setting": "tetrahydrofuran (THF), organic solvent or mixture, THF, RT, read-out: Solubility Range", "value": "≥ 48", "unit": "mg/mL"},
      {"measurement": "solubility", "setting": "toluene, 50 °C, organic solvent or mixture, Toluene, 50° C., read-out: Nominal Solubility", "value": 10, "unit": "mg/mL"},
      {"measurement": "solubility", "setting": "toluene, 50 °C, organic solvent or mixture, Toluene, 50° C., read-out: Solubility Range", "value": "10 to 25", "unit": "mg/mL"},
      {"measurement": "solubility", "setting": "water, 50 °C, water, Water, 50° C., read-out: Nominal Solubility", "value": "< 1.36", "unit": "mg/mL"},
      {"measurement": "solubility", "setting": "water, 50 °C, water, Water, 50° C., read-out: Solubility Range", "value": "< 1.36", "unit": "mg/mL"}
    ]}
  ]
}
